Test results reported in ChEMBL document CHEMBL4411257, “Inhibitors of Melanogenesis: An Updated Review” (J Med Chem, 2018).

Legend:
[1] = biological target: T1, Tyrosinase (Homo sapiens) (UniProt P14679); test: Competitive inhibition of recombinant human tyrosinase expressed in baculovirus infected Sf9 cells using L-DOPA as substrate by double-reciprocal plot analysis
T1 sequence (whole entry): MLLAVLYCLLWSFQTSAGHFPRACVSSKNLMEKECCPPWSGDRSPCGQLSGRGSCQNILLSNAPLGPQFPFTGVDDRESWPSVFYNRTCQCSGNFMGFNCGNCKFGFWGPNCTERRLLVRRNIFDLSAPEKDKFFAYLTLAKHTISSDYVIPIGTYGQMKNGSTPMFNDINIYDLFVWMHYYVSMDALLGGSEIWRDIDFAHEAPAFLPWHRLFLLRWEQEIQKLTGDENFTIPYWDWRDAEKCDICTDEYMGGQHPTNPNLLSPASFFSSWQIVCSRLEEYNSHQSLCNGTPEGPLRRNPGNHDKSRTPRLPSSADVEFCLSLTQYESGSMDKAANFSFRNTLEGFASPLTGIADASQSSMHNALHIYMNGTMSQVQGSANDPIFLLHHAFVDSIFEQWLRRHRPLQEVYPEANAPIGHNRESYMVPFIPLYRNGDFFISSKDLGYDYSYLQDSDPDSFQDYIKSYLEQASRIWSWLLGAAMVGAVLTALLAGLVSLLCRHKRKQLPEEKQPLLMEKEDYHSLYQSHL

Tyrosinase [2] = biological target: T2, Tyrosinase (Agaricus bisporus, UniProt O42713)
T2 sequence (O42713 whole entry): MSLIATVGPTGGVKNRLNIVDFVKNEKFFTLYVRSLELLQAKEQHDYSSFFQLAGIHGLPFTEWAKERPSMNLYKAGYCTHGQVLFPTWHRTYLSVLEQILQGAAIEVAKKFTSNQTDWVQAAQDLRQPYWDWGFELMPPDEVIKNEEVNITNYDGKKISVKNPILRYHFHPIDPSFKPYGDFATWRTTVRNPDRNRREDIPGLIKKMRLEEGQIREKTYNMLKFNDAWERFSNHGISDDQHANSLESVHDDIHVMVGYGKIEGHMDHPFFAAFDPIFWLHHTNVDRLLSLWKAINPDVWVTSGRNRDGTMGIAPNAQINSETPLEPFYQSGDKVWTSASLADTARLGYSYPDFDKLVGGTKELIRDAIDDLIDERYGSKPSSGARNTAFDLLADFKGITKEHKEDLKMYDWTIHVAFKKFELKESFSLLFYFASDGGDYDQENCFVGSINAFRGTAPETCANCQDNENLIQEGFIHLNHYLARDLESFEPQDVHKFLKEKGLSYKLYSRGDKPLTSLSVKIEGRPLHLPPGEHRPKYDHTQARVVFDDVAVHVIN
Description: Inhibition of mushroom tyrosinase

Tyrosinase [3] = biological target: T3, Tyrosinase (Homo sapiens, UniProt P14679)
T3 sequence (P14679 whole entry): T1 sequence (whole entry)

Tyrosinase [4] = biological target: T4, Tyrosinase (Mus musculus, UniProt P11344); test: Inhibition of tyrosinase in mouse B16 cells; format: cell-based
T4 sequence (P11344 whole entry): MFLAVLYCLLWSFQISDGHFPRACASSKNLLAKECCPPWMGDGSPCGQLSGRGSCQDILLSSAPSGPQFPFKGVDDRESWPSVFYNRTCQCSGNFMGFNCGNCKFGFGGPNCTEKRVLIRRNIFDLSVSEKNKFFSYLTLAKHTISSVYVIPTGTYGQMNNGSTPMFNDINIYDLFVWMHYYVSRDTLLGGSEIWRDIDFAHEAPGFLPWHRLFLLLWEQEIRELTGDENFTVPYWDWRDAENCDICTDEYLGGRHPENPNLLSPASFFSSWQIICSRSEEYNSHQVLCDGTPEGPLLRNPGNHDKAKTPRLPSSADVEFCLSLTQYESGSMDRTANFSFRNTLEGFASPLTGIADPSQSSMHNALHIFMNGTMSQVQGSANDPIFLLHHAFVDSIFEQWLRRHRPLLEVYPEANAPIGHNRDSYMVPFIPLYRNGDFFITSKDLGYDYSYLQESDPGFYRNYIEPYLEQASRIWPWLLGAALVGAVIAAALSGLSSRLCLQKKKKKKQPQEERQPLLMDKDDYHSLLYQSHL

Tyrosinase [5] = biological target: T4, Tyrosinase
Description: Inhibition of tyrosinase in mouse B16 cells assessed as reduction in melanin synthesis after 1 hr

[6] = biological target: T5, Tyrosinase (Mus musculus) (UniProt P11344); test: Inhibition of tyrosinase in mouse B16 cells assessed as reduction in alpha-MSH induced melanin synthesis at 30 uM relative to control; format: cell-based
T5 sequence (whole entry): T4 sequence (P11344 whole entry)

Tyrosinase [7] = biological target: T4, Tyrosinase; test: Inhibition of tyrosinase in mouse B16 cells assessed as reduction in alpha-MSH induced melanin synthesis; format: cell-based
Tyrosinase [8] = biological target: T3, Tyrosinase; test: biochemical
Description: Inhibition of recombinant human tyrosinase expressed in baculovirus infected Sf9 cells using L-DOPA as substrate by spectrophotometric analysis

Tyrosinase [9] = biological target: T2, Tyrosinase; test: Inhibition of Agaricus bisporus tyrosinase using L-tyrosine as substrate after 30 mins by spectrophotometric analysis
[10] = biological target: T6, Tyrosinase (Agaricus bisporus) (UniProt O42713); test: Inhibition of Agaricus bisporus tyrosinase at 1000 uM relative to control
T6 sequence (whole entry): T2 sequence (O42713 whole entry)

[11] = biological target: T1, Tyrosinase (Homo sapiens); test: Inhibition of human tyrosinase at 1 uM using L-tyrosine as substrate after 30 mins by ELISA relative to control
Tyrosinase (Danio rerio) = biological target: T7, Tyrosinase (Danio rerio) (UniProt A0A8M1PAD4); test: Inhibition of tyrosinase in zebrafish assessed as reduction in pigmentation level at 10 uM
T7 sequence (whole entry): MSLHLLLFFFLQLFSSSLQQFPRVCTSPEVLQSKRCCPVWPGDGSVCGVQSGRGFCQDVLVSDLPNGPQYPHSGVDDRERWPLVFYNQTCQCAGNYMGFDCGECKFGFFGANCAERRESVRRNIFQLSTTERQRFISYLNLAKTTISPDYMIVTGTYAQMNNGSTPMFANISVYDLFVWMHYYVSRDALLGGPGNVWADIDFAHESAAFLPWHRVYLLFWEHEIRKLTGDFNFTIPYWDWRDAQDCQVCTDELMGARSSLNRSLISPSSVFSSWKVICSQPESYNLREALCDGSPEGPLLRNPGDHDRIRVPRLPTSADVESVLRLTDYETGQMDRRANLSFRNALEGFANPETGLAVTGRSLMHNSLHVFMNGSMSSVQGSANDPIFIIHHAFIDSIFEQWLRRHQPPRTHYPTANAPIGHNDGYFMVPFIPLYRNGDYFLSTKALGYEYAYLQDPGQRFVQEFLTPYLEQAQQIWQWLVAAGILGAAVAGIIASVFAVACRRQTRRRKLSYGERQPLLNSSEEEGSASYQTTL

[12] = biological target: T1, Tyrosinase (Homo sapiens); test: Inhibition of tyrosinase in human epidemal melanocytes assessed as reduction in melanin formation at 1 uM; format: cell-based
Tyrosinase [13] = biological target: T3, Tyrosinase; test: Inhibition of human tyrosinase after 120 mins
[14] = Cytotoxicity against mouse B16 cells assessed as cell viability at 1000 uM after 48 hrs by MTT assay relative to control; format: cell-based; conditions: read-out: Activity
Tyrosinase [15] = biological target: T3, Tyrosinase; test: Inhibition of tyrosinase (unknown origin) assessed as reduction in monophenolase activity
Tyrosinase [16] = biological target: T3, Tyrosinase; test: Inhibition of tyrosinase (unknown origin) assessed as reduction in diphenolase activity
Tyrosinase [17] = biological target: T3, Tyrosinase; remark: listed apart in the source
[18] = biological target: T1, Tyrosinase (Homo sapiens); test: Potency index, ratio of kojic acid IC50 to compound IC50 for human tyrosinase
Tyrosinase [19] = biological target: T2, Tyrosinase; test: Inhibition of Agaricus bisporus tyrosinase using L-tyrosine as substrate after 60 mins by spectrophotometric analysis
Tyrosinase [20] = biological target: T4, Tyrosinase; format: cell-based
Description: Inhibition of tyrosinase in mouse B16F10 cells assessed as reduction in melanin synthesis after 2 hrs by spectrophotometric analysis

With O=C1/C(=C/c2ccc(=O)n(O)c2)Oc2cc(O)ccc21 the Kic [1] was 0.35 µM and the IC50 (Tyrosinase [2]) was 1.5 µM.

Molecule C=C(C)C(=O)Cc1c(-c2ccc(O)cc2O)oc2c3c(cc(O)c2c1=O)OC(C)(C)C=C3 has an IC50 (Tyrosinase [3]) of 290 µM.

Work on OC[C@H]1O[C@@H](Oc2cc(O)cc(/C=C/c3ccc(O[C@@H]4O[C@H](CO)[C@@H](O)[C@H](O)[C@H]4O)cc3O)c2)[C@H](O)[C@@H](O)[C@@H]1O [MULBERROSIDE A] yielded an IC50 (Tyrosinase [4]) of over 100 µM.

For O=C(/C=C/c1ccc(O)cc1O)c1ccc(O)cc1O, the IC50 (Tyrosinase [5]) was 5 µM and the IC50 (Tyrosinase [3]) was 0.07 to 0.21 µM.

Work on CC(C)=C/C=C1\O[C@@H]2CC(C)=CC(=O)[C@@H]2[C@]1(C)O [BISABOLANGELONE] yielded an inhibition [6] of 99% and an IC50 (Tyrosinase [7]) of 9 µM.

Molecule O=C1/C(=C/c2ccc(=O)n(O)c2)Oc2cc(O)cc(O)c21 has an IC50 (Tyrosinase [8]) of 30 µM.

Cc1ccc(S(=O)(=O)Oc2ccccc2/N=N/c2ccc(O)cc2)cc1 gave an IC50 (Tyrosinase [9]) of 201 µM.

COc1ccc(NC(=O)/C=C/c2ccc(O)c(O)c2)cc1 showed an inhibition [10] of 36.8%.

In the case of C/C(=C\Cc1c(O)ccc(C(=O)/C=C/c2ccc(O)cc2O)c1O)CO, the IC50 (Tyrosinase [5]) is reported as 4 µM and the IC50 (Tyrosinase [3]) is reported as 0.17 µM.

Molecule CC(C)=CCc1c(O)ccc(C[C@@H]2[C@H](c3c(O)ccc(C(=O)/C=C/c4ccc(O)cc4O)c3O)C=C(C)C[C@H]2c2ccc(O)cc2O)c1O has an IC50 (Tyrosinase [3]) of 4.62 µM.

C=C1OC(=O)/C(=C\CCCCCCCCCCCCC)[C@H]1O showed an inhibition [11] of 50%, an inhibition (Tyrosinase (Danio rerio)) of 30% and an inhibition [12] of 40%.

For O=C(O)/C=C/c1ccc(O)cc1 [COUMARIC ACID], the IC50 (Tyrosinase [13]) was 3 µM.

Oc1ccc(/C=C/c2cc(O)cc(O)c2)cc1 [RESVERATROL] showed an IC50 (Tyrosinase [3]) of 250 µM.

Molecule COc1ccc(/N=C/c2ccc(O)c(O)c2)cc1 has an IC50 (Tyrosinase [9]) of 61.7 µM.

In the case of Cc1ccc(S(=O)(=O)Oc2ccccc2/N=N/c2ccc(O)cc2O)cc1, the IC50 (Tyrosinase [9]) is reported as 17.9 µM.

Work on CC(C)=CCC[C@](C)(O[C@@H]1O[C@H](CO[C@@H]2O[C@H](CO)[C@@H](O)[C@H](O)[C@H]2O)[C@@H](O)[C@H](O)[C@H]1O)[C@H]1CC[C@]2(C)[C@@H]1[C@H](O)C[C@@H]1[C@@]3(C)CC[C@H](O[C@@H]4O[C@H](CO)[C@@H](O)[C@H](O)[C@H]4O[C@@H]4O[C@H](CO)[C@@H](O)[C@H](O)[C@H]4O)C(C)(C)[C@@H]3CC[C@]12C [GINSENOSIDE RB1] yielded a viability at 48 h, 1000 µM [14] of 4.67%.

With CCCCCCn1cc(O)c(=O)cc1COC(=O)[C@@H](N)Cc1ccccc1 the IC50 (Tyrosinase [15]) was 19.2 µM and the IC50 (Tyrosinase [16]) was 42.8 µM.

O=C1/C(=C/c2ccc(O)cc2)Oc2cc(O)cc(O)c21 showed an IC50 (Tyrosinase [2]) of 38.7 µM.

Work on CCCCc1ccc(O)cc1O [RUCINOL] yielded an IC50 (Tyrosinase [17]) of 21 µM and a Ratio IC50 [18] of 20.

For COc1ccc(/C=N/c2ccccc2)cc1, the IC50 (Tyrosinase [19]) was 212 µM.

Molecule Oc1cc(O)cc(CCc2ccc(O)cc2O)c1 has an IC50 (Tyrosinase [4]) of 0.3 µM.

Molecule CN(C)c1ccc(/C=C/C(=N\O)c2ccccc2O)cc1 has an IC50 (Tyrosinase [3]) of 7.89 µM.

Work on Oc1cccc(/C=C/c2ccc(O)cc2O)c1 yielded an IC50 (Tyrosinase [4]) of 0.8 µM.

With C[S+]([O-])c1ccc(-c2nc(-c3ccncc3)c(-c3ccc(F)cc3)[nH]2)cc1 (stereo not given) [SB-203580] the IC50 (Tyrosinase [20]) was 0.034 µM.

Molecule CCCCCCCCCCCCC/C=C1\C(=O)O[C@@](C)(OC)[C@@H]1O has an inhibition [11] of 50%, an inhibition (Tyrosinase (Danio rerio)) of 25% and an inhibition [12] of 40%.

Molecule O=C1/C(=C/c2ccc(O)cc2)Oc2cccc(O)c21 has an IC50 (Tyrosinase [2]) of 31.7 µM.

Oc1ccc(/C=N/c2ccccc2)cc1 gave an IC50 (Tyrosinase [19]) of 145 µM.

O=C1/C(=C/c2ccc(O)cc2)Oc2cc(O)ccc21 gave an IC50 (Tyrosinase [2]) of 38.4 µM.

With O=C1C[C@@H](c2ccc(O)cc2O)Oc2cc(O)cc(O)c21 the IC50 (Tyrosinase [3]) was 0.98 µM.

Work on O=C(N[C@@H](Cc1ccccc1)C(=O)OCc1cc(=O)c(O)c[nH]1)OCc1ccccc1 yielded an IC50 (Tyrosinase [15]) of 1.95 µM and an IC50 (Tyrosinase [16]) of 2.79 µM.

Work on Oc1cc(O)cc(-c2cc3ccc(O)cc3o2)c1 [MORACIN M] yielded an IC50 (Tyrosinase [3]) of 8 µM.

In the case of CCCCCCCCn1cc(O)c(=O)cc1COC(=O)[C@@H](N)Cc1ccccc1, the IC50 (Tyrosinase [15]) is reported as 12.6 µM and the IC50 (Tyrosinase [16]) is reported as 12.6 µM.

With COc1cc([N+](=O)[O-])ccc1/C=C/C(=N\O)c1ccccc1O the IC50 (Tyrosinase [3]) was 4.77 µM.

Oc1ccccc1/C=N/c1ccccc1 [2-((PHENYLIMINO)METHYL)PHENOL] showed an IC50 (Tyrosinase [19]) of 250 µM.

Oc1ccc(O)cc1 [HYDROQUINONE] gave an IC50 (Tyrosinase [17]) of 4400 µM.

Molecule Oc1ccc(/N=C/c2ccc(O)c(O)c2)cc1 has an IC50 (Tyrosinase [9]) of 17.2 µM.

Molecule Oc1ccc(/N=N/c2ccccc2O)cc1 has an IC50 (Tyrosinase [9]) of 44.1 µM.

Molecule CC(C)=CCc1c(O)ccc(C(=O)/C=C/c2ccc(O)cc2O)c1O [MORACHALCONE A] has an IC50 (Tyrosinase [5]) of 3.8 µM and an IC50 (Tyrosinase [3]) of 0.08 to 0.82 µM.

Molecule N[C@@H](Cc1ccccc1)C(=O)N[C@@H](Cc1ccccc1)C(=O)OCc1cc(=O)c(O)c[nH]1 has an IC50 (Tyrosinase [15]) of 8.97 µM and an IC50 (Tyrosinase [16]) of 26.2 µM.

Oc1ccc(-c2nc(-c3ccncc3)c(-c3ccc(F)cc3)[nH]2)cc1 [SB-202190] gave an IC50 (Tyrosinase [20]) of 0.03 µM.

Work on COc1ccc(/N=C/c2ccc(O)cc2O)cc1 yielded an IC50 (Tyrosinase [9]) of 51.5 µM.
